Test results taken from patent US9650340B2, “5-fluoro-N-(pyridin-2-yl)pyridin-2-amine derivatives containing a sulfoximine group” (BAYER PHARMA AKTIENGESELLSCHAFT, priority 2012, dated 2017).
Read-outs that look alike come from different tables or passages of the source.

Tests used:
[1] = target: T1, CDK2/CycE (Homo sapiens, UniProt P24941); assay: CDK2/CycE high ATP kinase assay (TR-FRET, 2 mM ATP); type: biochemical; details: Method 2b
T1 construct: GST; purchased ProQinase GmbH (Freiburg, Germany); host or cells: insect cells (Sf9)
Description: 2b. CDK2/CycE High ATP Kinase Assay:
CDK2/CycE-inhibitory activity of compounds of the present invention at 2 mM adenosine-tri-phosphate (ATP) was quantified employing the CDK2/CycE TR-FRET (TR-FRET=Time Resolved Fluorescence Energy Transfer) assay as described in the following paragraphs.
Recombinant fusion proteins of GST and human CDK2 and of GST and human CycE, expressed in insect cells (Sf9) and purified by Glutathion-Sepharose affinity chromatography, were purchase from ProQinase GmbH (Freiburg, Germany). As substrate for the kinase reaction biotinylated peptide biotin-Ttds-[…] (C-terminus in amid form) was used which can be purchased e.g. form the company JERINI peptide technologies (Berlin, Germany).
For the assay 50 nl of a 100 fold concentrated solution of the test compound in DMSO was pipetted into a black low volume 384 well microtiter plate (Greiner Bio-One, Frickenhausen, Germany), 2 μl of a solution of CDK2/CycE in aqueous assay buffer [50 mM Tris/HCl pH 8.0, 10 mM MgCl2, 1.0 mM dithiothreitol, 0.1 mM sodium ortho-vanadate, 0.01% (v/v) Nonidet-P40 (Sigma)] were added and the mixture was incubated for 15 min at 22° C. to allow pre-binding of the test compounds to the enzyme before the start of the kinase reaction. Then the kinase reaction was started by the addition of 3 μl of a solution ATP (3.33 mM=>final conc. in the 5 μl assay volume is 2 mM) and substrate (1.25 μM=>final conc. in the 5 μl assay volume is 0.75 μM) in assay buffer and the resulting mixture was incubated for a reaction time of 25 min at 22° C. The concentration of CDK2/CycE was adjusted depending of the activity of the enzyme lot and was chosen appropriate to have the assay in the linear range, typical concentrations were in the range of 15 ng/ml. The reaction was stopped by the addition of 5 μl of a solution of TR-FRET detection reagents (0.2 μM streptavidine-XL665 [Cisbio Bioassays, Codolet, France] and 1 nM anti-RB(pSer807/pSer811)-antibody from BD Pharmingen [#558389] and 1.2 nM LANCE EU-W1024 labeled anti-mouse IgG antibody [Perkin-Elmer, product no. AD0077, as an alternative a Terbium-cryptate-labeled anti-mouse IgG antibody from Cisbio Bioassays can be used]) in an aqueous EDTA-solution (100 mM EDTA, 0.2% (w/v) bovine serum albumin in 100 mM HEPES/NaOH pH 7.0).
The resulting mixture was incubated 1 h at 22° C. to allow the formation of complex between the phosphorylated biotinylated peptide and the detection reagents. Subsequently the amount of phosphorylated substrate was evaluated by measurement of the resonance energy transfer from the Eu-chelate to the streptavidine-XL. Therefore, the fluorescence emissions at 620 nm and 665 nm after excitation at 350 nm were measured in a TR-FRET reader, e.g. a Rubystar (BMG Labtechnologies, Offenburg, Germany) or a Viewlux (Perkin-Elmer). The ratio of the emissions at 665 nm and at 622 nm was taken as the measure for the amount of phosphorylated substrate.

[2] = system: HeLa-MaTu-ADR, multidrug-resistant human cervical carcinoma cells; assay: Proliferation assay, HeLa-MaTu-ADR (crystal violet); type: cell-based; details: 4 days, read-out: Inhibition of HeLa-MaTu-ADR cell proliferation IC50
Description: (§1) Cultivated tumour cells (HeLa, human cervical tumour cells, ATCC CCL-2; NCI-H460, human non-small cell lung carcinoma cells, ATCC HTB-177; A2780, human ovarian carcinoma cells, ECACC #93112519; DU 145, hormone-independent human prostate carcinoma cells, ATCC HTB-81; HeLa-MaTu-ADR, multidrug-resistant human cervical carcinoma cells, EPO-GmbH Berlin; Caco-2, human colorectal carcinoma cells, ATCC HTB-37; B16F10, mouse melanoma cells, ATCC CRL-6475) were plated at a density of 5,000 cells/well (DU145, HeLa-MaTu-ADR), 3,000 cells/well (NCI-H460, HeLa), 2,500 cells/well (A2780), 1,500 cells/well (Caco-2), or 1,000 cells/well (B16F10) in a 96-well multititer plate in 200 μL of their respective growth medium supplemented 10% fetal calf serum. After 24 hours, the cells of one plate (zero-point plate) were stained with crystal violet (see below), while the medium of the other plates was replaced by fresh culture medium (200 μl), to which the test substances were added in various concentrations (0 μM, as well as in the range of 0.001-10 μM; the final concentration of the solvent dimethyl sulfoxide was 0.5%). The cells were incubated for 4 days in the presence of test substances. Cell proliferation was determined by staining the cells with crystal violet: the cells were fixed by adding 20 μl/measuring point of an 11% glutaric aldehyde solution for 15 minutes at room temperature. After three washing cycles of the fixed cells with water, the plates were dried at room temperature. The cells were stained by adding 100 μl/measuring point of a 0.1% crystal violet solution (pH 3.0). After three washing cycles of the stained cells with water, the plates were dried at room temperature. The dye was dissolved by adding 100 μl/measuring point of a 10% acetic acid solution. The extinction was determined by photometry at a wavelength of 595 nm. The change of cell number, in percent, was calculated by normalization of the measured values to the extinction values of the zero-point plate (=0%) and the extinction of the untreated (0 μm) cells (=100%). The IC50 values (inhibitory concentration at 50% of maximal effect) were determined by means of a 4 parameter fit. Non-adherent MOLM-13 human acute myeloid leukemia cells (DSMZ ACC 554) were seeded at a density of 5,000 cells/well in a 96-well multititer plate in 100 μL of growth medium supplemented 10% fetal calf serum. After 24 hours, cell viability of one plate (zero-point plate) was determined with the Cell Titre-Glo Luminescent Cell Viability Assay (Promega), while 50 μL of test compound containing medium was added to the wells of the other plates (final concentrations in the range of 0.001-10 μM and DMSO controls; the final concentration of the solvent dimethyl sulfoxide was 0.5%). Cell viability was assessed after 72-hour exposure with the Cell Titre-Glo Luminescent Cell Viability Assay (Promega).

[3] = system: DU 145, hormone-independent human prostate carcinoma cells; assay: Proliferation assay, DU145 (crystal violet); type: cell-based; details: DU145, 4 days, read-out: Inhibition of DU145 cell proliferation IC50
Description: as §1

[4] = system: Caco-2, human colorectal carcinoma cells; assay: Proliferation assay, Caco-2 (crystal violet); type: cell-based; details: Caco-2, 4 days, read-out: Inhibition of Caco-2 cell proliferation IC50
Description: as §1

[5] = system: MOLM-13 human acute myeloid leukemia cells; assay: Proliferation assay, MOLM-13 (Cell Titre-Glo); type: cell-based; details: MOLM-13, 72-hour exposure, read-out: Inhibition of MOLM-13 cell proliferation IC50
Description: as §1

| IC50 [1] | IC50 ([2]; Homo sapiens, 96 h) | IC50 ([3]; Homo sapiens, DU-145, 96 h) | IC50 ([4]; Homo sapiens, Caco-2, 96 h) | IC50 ([5]; Homo sapiens, MOLM-13, 72 h) | IC50 [2] | IC50 [3] | IC50 [4] | IC50 [5] | Compound |
| --- | --- | --- | --- | --- | --- | --- | --- | --- | --- |
| 1420 nM | 32 nM | 34 nM | 38 nM | 12 nM | – | – | – | – | COc1cc(F)ccc1-c1cc(Nc2cc(CS(C)(=O)=NC#N)ccn2)ncc1F (single isomer, unassigned) [Example 10, {[(2-{[5-Fluoro-4-(4-fluoro-2-methoxyphenyl)pyridin-2-yl]amino}pyridin-4-yl)methyl](methyl)oxido-λ^6-sulfanylidene}cyanamide] |
| 2920 nM | – | – | – | 29 nM | 33 nM | 33 nM | 62 nM | – | COc1cc(F)ccc1-c1cc(Nc2cc(CS(C)(=N)=O)ccn2)ncc1F (single isomer, unassigned; (+)) [Example 2, (+)-5-Fluoro-4-(4-fluoro-2-methoxyphenyl)-N-{4-[(S-methylsulfonimidoyl)methyl]pyridin-2-yl}pyridin-2-amine] |
| 2490 nM | – | – | – | – | 37 nM | 37 nM | 58 nM | 40 nM | COc1cc(F)ccc1-c1cc(Nc2cc(CS(C)(=N)=O)ccn2)ncc1F (single isomer, unassigned; (-)) [Example 3, (−)-5-Fluoro-4-(4-fluoro-2-methoxyphenyl)-N-{4-[(S-methylsulfonimidoyl)methyl]pyridin-2-yl}pyridin-2-amine] |
| 680 nM | – | – | – | – | 27 nM | 31 nM | 30 nM | 23 nM | COc1cc(F)ccc1-c1cc(Nc2cc(CS(C)(=N)=O)cc(C)n2)ncc1F (single isomer, unassigned; (-)) [Example 33, (−)-5-Fluoro-4-(4-fluoro-2-methoxyphenyl)-N-{6-methyl-4-[(S-methylsulfonimidoyl)methyl]pyridin-2-yl}pyridin-2-amine] |

Continued, compound first:

| Compound | IC50 [1] | IC50 ([2]; Homo sapiens, 96 h) | IC50 ([3]; Homo sapiens, DU-145, 96 h) | IC50 ([4]; Homo sapiens, Caco-2, 96 h) | IC50 ([5]; Homo sapiens, MOLM-13, 72 h) | IC50 [2] | IC50 [3] | IC50 [4] | IC50 [5] |
| --- | --- | --- | --- | --- | --- | --- | --- | --- | --- |
| COc1cc(F)ccc1-c1cc(Nc2cc(CS(C)(=N)=O)cc(C(F)(F)F)n2)ncc1F (racemic) [Example 21, (rac)-5-Fluoro-4-(4-fluoro-2-methoxyphenyl)-N-{4-[(S-methylsulfonimidoyl)methyl]-6-(trifluoromethyl)pyridin-2-yl}pyridin-2-amine] | 133 nM | 30 nM | 30 nM | 32 nM | 17 nM | – | – | – | – |
| CCOc1cc(F)ccc1-c1cc(Nc2cc(CS(C)(=N)=O)cc(F)n2)ncc1F (racemic) [Example 26, (rac)-4-(2-Ethoxy-4-fluorophenyl)-5-fluoro-N-{6-fluoro-4-[(S-methylsulfonimidoyl)methyl]pyridin-2-yl}pyridin-2-amine] | 1200 nM | 49 nM | 110 nM | 86 nM | 44 nM | – | – | – | – |
| COc1cc(F)ccc1-c1cc(Nc2cc(CS(C)(=N)=O)cc(C(F)(F)F)n2)ncc1F (single isomer, unassigned; (+)) [Example 22, (+)-5-Fluoro-4-(4-fluoro-2-methoxyphenyl)-N-{4-[(S-methylsulfonimidoyl)methyl]-6-(trifluoromethyl)pyridin-2-yl}pyridin-2-amine] | 233 nM | 30 nM | 32 nM | 38 nM | 10 nM | – | – | – | – |
| COc1cc(F)ccc1-c1cc(Nc2cc(CS(C)(=N)=O)cc(C)n2)ncc1F (single isomer, unassigned; (+)) [Example 32, (+)-5-Fluoro-4-(4-fluoro-2-methoxyphenyl)-N-{6-methyl-4-[(S-methylsulfonimidoyl)methyl]pyridin-2-yl}pyridin-2-amine] | 1120 nM | 53 nM | 38 nM | 40 nM | 17 nM | – | – | – | – |
| COc1cc(F)ccc1-c1cc(Nc2cc(CS(C)(=N)=O)cc(C(F)(F)F)n2)ncc1F (single isomer, unassigned; (-)) [Example 23, (−)-5-Fluoro-4-(4-fluoro-2-methoxyphenyl)-N-{4-[(S-methylsulfonimidoyl)methyl]-6-(trifluoromethyl)pyridin-2-yl}pyridin-2-amine] | 283 nM | – | – | – | – | 30 nM | 34 nM | 34 nM | 10 nM |
